Source: US20230201185A1, “TREATMENT OF TYPE 2 DIABETES OR OBESITY OR OVERWEIGHT WITH 2-[(4-{6-[(4-CYANO-2-FLUOROBENZYL)OXY]PYRIDIN-2-YL}PIPERIDIN-1-YL)METHYL]-1-[(2S)-OXETAN-2-YLMETHYL]-1H-BENZIMIDAZOLE-6-CARBOXYLIC ACID OR A PHARMACEUTICALLY SALT THEREOF” (Pfizer Inc., priority 2020, published 2023)
Read-outs that look alike come from different tables or passages of the source.

Key:
Type in all cases: in vivo, human
[1] = tested on: participants with type 2 diabetes mellitus (T2DM); assay: Clinical dose guiding study: 24-hour mean daily glucose (MDG); conditions: Day 28; for Mean Daily Glucose, Mean CFB: oral, on metformin
Source text: (§1) This study was a randomized, double-blind (sponsor-open), parallel, placebo-controlled, multiple oral dose-escalating study of Compound 1 (in the form of its tris salt) in participants with type 2 diabetes mellitus (T2DM) on a background of metformin monotherapy.
(§2) A total of 98 participants received oral doses of Compound 1 (in the form of its tris salt) or matching placebo for 28 days, in this study. A total of approximately 12 participants were enrolled in each cohort with a randomization ration of 3:1 (9 active and 3 placebo), and 8 cohorts were enrolled in the study. Participants were admitted to the clinical research unit (CRU) on or before Day −2 and were discharged following completion of all assessments on Day 30, at principal investigator discretion. For individual participants, the total duration of participation from the Screening visit to the on-site Follow-up visit was approximately 15 weeks. A Follow-up visit and a Follow-up contact (which have been conducted by phone call) occurred 35-42 days and 56-63 days following the first dose of investigational product on Day 1, respectively. Participants who discontinued prior to completion of the study might have been replaced, at the discretion of the principal investigator and Sponsor. 92 participants completed the inpatient study.
(§3) The planned titration schemes and dosing paradigms for all Cohorts are listed in Table 2-1. • QD: once daily • BID: twice daily
(§4) Diagnosis and Main Criteria for Inclusion: The population for this study was female participants of non-childbearing potential and/or male participants with T2DM, with an HbA1c […], who were taking metformin as their only anti-hyperglycemic treatment, and who were between 18 and 70 years with T2DM at the time of consent and Screening, with a body mass index (BMI) of 24.5 to 45.4 kg/m^2 and a total body weight >50 kg (110 lb). Metformin dose was required to be 500 mg per day and was required to be stable, for at least 2 months prior to the Screening visit and was administered in the CRU according to patient's baseline dosing regimen.
(§5) Study Treatment: Compound 1 (in the form of its tris salt) was supplied as 1 mg, 10 mg, 50 mg and 100 mg immediate release (IR) tablets or 50 mg controlled release (CR) tablets (see Examples 1 and 2) for oral administration. Matching placebo tablets (2:1, Microcrystalline Cellulose: Lactose) were also provided.
(§6) Measurements of fasting plasma glucose (FPG), 24-hour mean daily glucose (MDG), HbA1C, and body weight at baseline (at Day −1) and at Day 28 (shown as change from baselin) are shown in Tables 2-2 to 2-5.
(§7) Baseline was defined as the measurement (MDG, FPG, HbA1c, or body weight) on Day −1. Randomized treatment represented the target dose at Day 28.
Observed data presented. Mean Daily Glucose (MDG) was defined as AUC24/24.

[2] = Clinical dose guiding study: body weight; conditions: Day 28, oral, T2DM on metformin
Source text: as §1, §2, §3, §4, §5, §6, §7

[3] = tested on: participants with type 2 diabetes mellitus (T2DM); assay: Clinical dose guiding study: fasting plasma glucose (FPG); conditions: Day 28, oral, on metformin
Source text: as §1, §2, §3, §4, §5, §6, §7

[4] = tested on: participants with type 2 diabetes mellitus (T2DM); assay: Clinical dose guiding study: adverse events (TEAEs); conditions: for number of all causality TEAEs (events) / number of all causality TEAEs: 28 days
Source text: as §1, §2, §5

[5] = tested on: participants with type 2 diabetes mellitus (T2DM); assay: Clinical dose guiding study: ECG; conditions: planned treatment groups; self-limited
Source text: as §1
as §2, with “inpatient study. […]” for “inpatient study.”

[6] = tested on: participants with type 2 diabetes mellitus (T2DM); assay: Clinical dose guiding study: HbA1c; conditions: Day 28, oral, on metformin
Source text: as §1, §2, §3, §4, §5, §6, §7

[7] = Clinical dose guiding study: plasma pharmacokinetics and urinary recovery; conditions: for Tmax: read-out: median Tmax and Tmax1
Source text: as §1, §2, §5

N#Cc1ccc(COc2cccc(C3CCN(Cc4nc5ccc(C(=O)O)cc5n4C[C@@H]4CCO4)CC3)n2)c(F)c1 [1,3-dihydroxy-2-(hydroxymethyl)propan-2-aminium 2-[(4-{6-[(4-cyano-2-fluorobenzyl)oxy]pyridin-2-yl}piperidin-1-yl)methyl]-1-[(2S)-oxetan-2-ylmethyl]-1H-benzimidazole-6-carboxylate]
Mean Daily Glucose, Mean CFB ([1]; 10 mg BID, baseline 189.9): -53.3 mg/dL | Mean Daily Glucose, Mean CFB ([1]; 15 mg BID, baseline 225.4): -85.9 mg/dL | Mean Daily Glucose, Mean CFB ([1]; 50 mg BID, baseline 190.2): -48.7 mg/dL | Mean Daily Glucose, Mean CFB ([1]; 70 mg BID, baseline 218.5): -101.6 mg/dL | Mean Daily Glucose, Mean CFB ([1]; 120 mg BID Slow Titration, baseline 179.9): -68.6 mg/dL | Mean Daily Glucose, Mean CFB ([1]; 120 mg BID, baseline 219.0): -105.9 mg/dL | Mean Daily Glucose, Mean CFB ([1]; 120 mg QD, baseline 188.8): -70.9 mg/dL | Mean Daily Glucose, Mean CFB ([1]; 200 mg QD Controlled Release, baseline 225.2): -102.8 mg/dL | reductions in FPG, MDG, HbA1c, and body weight ([1]; increasing efficacy at higher doses of 70 mg to 120 mg twice daily): robust reductions | Body Weight, Mean CFB ([2]; 10 mg BID, baseline 99.90): -2.8 kg | Body Weight, Mean CFB ([2]; 15mg BID, baseline 93.60): -2.4 kg | Body Weight, Mean CFB ([2]; 50 mg BID, baseline 88.24): -2.4 kg | Body Weight, Mean CFB ([2]; 70 mg BID, baseline 86.08): -4.0 kg | Body Weight, Mean CFB ([2]; 120 mg BID Slow Titration, baseline 88.01): -5.5 kg | Body Weight, Mean CFB ([2]; 120 mg BID, baseline 101.34): -7.9 kg | Body Weight, Mean CFB ([2]; 120 mg QD, baseline 84.88): -4.3 kg | Body Weight, Mean CFB ([2]; 200 mg QD Controlled Release, baseline 92.29): -3.1 kg | Fasting Plasma Glucose, Mean CFB ([3]; 10 mg BID, baseline 158.3): -34.3 mg/dL | Fasting Plasma Glucose, Mean CFB ([3]; 15 mg BID, baseline 198.4): -66.6 mg/dL | Fasting Plasma Glucose, Mean CFB ([3]; 50 mg BID, baseline 168.1): -34.5 mg/dL | Fasting Plasma Glucose, Mean CFB ([3]; 70 mg BID, baseline 186.3): -80.6 mg/dL | Fasting Plasma Glucose, Mean CFB ([3]; 120 mg BID Slow Titration, baseline 176.3): -75.1 mg/dL | Fasting Plasma Glucose, Mean CFB ([3]; 120 mg BID, baseline 196.9): -89.7 mg/dL | Fasting Plasma Glucose, Mean CFB ([3]; 120 mg QD, baseline 179.9): -48.3 mg/dL | Fasting Plasma Glucose, Mean CFB ([3]; 200 mg QD Controlled Release, baseline 195.3): -77.3 mg/dL | incidence of all causalities TEAEs in Gastrointestinal Disorders category ([4]; 10 mg BID group (placebo 52.0%)): 33.3% | number of all causality TEAEs (events) ([4]; 10 mg BID group): 8 events | number of all causality TEAEs (events) ([4]; 15 mg BID group): 16 events | participants discontinued from the study due to treatment-related TEAEs ([4]; 15 mg BID group, moderate TEAE of headache): 1 participant | participants with dose reduction or temporary discontinuation due to TEAEs ([4]; 50 mg BID group): 4 participants | number of all causality TEAEs ([4]; 50 mg BID group): 45 | participants discontinued from the study due to treatment-related TEAEs ([4]; 50 mg BID group, moderate decreased appetite, nausea, vomiting and mild fatigue): 1 participant | number of all causality TEAEs ([4]; 70 mg BID group): 31 | participants with dose reduction or temporary discontinuation due to TEAEs ([4]; 120 mg BID Slow titration group): 2 participants | participants with dose reduction or temporary discontinuation due to TEAEs ([4]; 120 mg BID group): 1 participants | number of all causality TEAEs ([4]; 120 mg BID group): 43 | participants with mild hypoglycemia ([4]; 120 mg BID group, after missing a meal or snack, self-limited, treatment-related): 1 participant | severe TEAEs ([4]; 120 mg BID slow titration group, 1 treatment-related, 1 not): 2 | number of all causality TEAEs (events) ([4]; 120 mg BID slow titration group): 50 events | SAE ([4]; 120 mg BID slow titration group, not treatment-related): 1 | number of all causality TEAEs ([4]; 120 mg QD group): 35 | participants with dose reduction or temporary discontinuation due to TEAEs ([4]; 200 mg QD CR group): 1 participants | number of all causality TEAEs ([4]; 200 mg QD CR group): 47 | adverse trends in safety laboratory tests, vital signs or ECG parameters with increasing dose ([4]; ascending, multiple, oral doses): no clinically significant adverse trends | overall safety and tolerability ([4]; ascending, multiple, oral doses, adult participants with T2DM): generally safe and well-tolerated | participants with post-baseline ECG meeting criteria of QTcF interval >450 and ≤80 or change from baseline >30 and ≤60 [5]: 3 participants | HbA1c, Mean CFB ([6]; 10 mg BID, baseline 8.2): −0.8% | HbA1c, Mean CFB ([6]; 15 mg BID, baseline 8.6): −0.9% | HbA1c, Mean CFB ([6]; 50 mg BID, baseline 8.3): −1.2% | HbA1c, Mean CFB ([6]; 70 mg BID, baseline 8.3): −1.2% | HbA1c, Mean CFB ([6]; 120 mg BID Slow Titration, baseline 8.2): −1.2% | HbA1c, Mean CFB ([6]; 120 mg BID, baseline 8.5): −1.2% | HbA1c, Mean CFB ([6]; 120 mg QD, baseline 8.2): −1.0% | HbA1c, Mean CFB ([6]; 200 mg QD Controlled Release, baseline 8.6): −1.1% | dose proportionality of exposure (dose normalized mean AUC24) ([7]; Day 1, BID and QD treatments, IR formulation): approximately dose proportional | dose proportionality of AUC24 and Cmax ([7]; Day 28, BID IR formulation cohorts): approximately dose-proportional | Tmax ([7]; human, plasma, Day 1, single oral dose, IR formulation, QD and BID regimens): 2 to 4 h

N#Cc1ccc(COc2cccc(C3CCN(Cc4nc5ccc(C(=O)O)cc5n4C[C@@H]4CCO4)CC3)n2)c(F)c1 [Compound 1, 2-[(4-{6-[(4-Cyano-2-fluorobenzyl)oxy]pyridin-2-yl}piperidin-1-yl)methyl]-1-[(2S)-oxetan-2-ylmethyl]-1H-benzimidazole-6-carboxylic acid]
Urinary recovery, dose recovered unchanged in urine ([7]; Day 28): < 0.1 % of the dose | Tmax ([7]; human, plasma, oral, Day 28, BID and QD IR treatments): 3 to 10 h | half-life ([7]; human, plasma, oral, across all treatments, read-out: Mean t % (terminal half life)): 4.7 to 8.1 h
